Measurements as given in patent US11517508B2, “Composition for single-paste type hydraulic endodontic filling material comprising dimethyl sulfoxide” (MARUCHI, priority 2016, dated 2022).

System: MC3T3-E1 cells
Experiment: Cytotoxicity test (MTT) of solvents, material extracts on MC3T3-E1 cells
Type: cell-based
Details: p<0.05, FIG. 1
Method: FIG. 1 is a graph of a cytotoxicity test according to one embodiment of the invention. The test will be described with reference to FIG. 1.
A: NMP, B: DMSO, C: DEGEE, and D: DMSO 80%+DEGEE 20%
Cytotoxicity was measured with respect to the above four kinds of solvents by the following method:
(i) A specimen was placed in a mold with a thickness of 2 mm and a diameter of 10 mm, and hardened in an incubator at 37° C. for 3 days. (ii) A material extract was derived by filling the hardened specimen with a medium at a surface area/medium ratio of 0.5 cm^2 per ml and incubating it at 37° C. for 3 days. (iii) 1.5×10^4 MC3T3-E1 cells were seeded per well on a 24-well culture plate and incubated for 24 hours, and then the medium was sucked off. 1 ml of the material extract was placed in each well and set in triplicate. (iv) The material extracts were incubated for 24 hours, 48 hours and 72 hours, respectively, and then the medium was discarded. The material extracts were treated with 200 μl of 0.05% MTT solution, wrapped in aluminum foil, and reacted in the incubator at 37° C. for 2 hours. (v) 200 μl of DMSO was added after the reaction. Then, 200 μl of the reaction solution was transferred to each well in a 96-well plate and absorbance was measured at 590 nm.

[1] = all tests and all times (24, 48, 72 hours), compared with NMP groups

## CCOCCOCCO [DEGEE, diethylene glycol monoethyl ether, reference compound]
[1]
  cell survival rate: higher cell survival rate than groups for which NMP was used as a solvent

## C[S+](C)[O-] [DMSO, dimethyl sulfoxide]
48 hours and 72 hours, comparison between solvent groups
  cell survival rate: significantly higher cell survival rate than groups for which DEGEE and a mixture of DMSO and DEGEE were used as solvents
[1]
  cell survival rate: higher cell survival rate than groups for which NMP was used as a solvent
